Assay results as given in US7150974B1, “Parathyroid hormone receptor binding method” (The General Hospital Corporation, priority 1991, dated 2006).

How the values were obtained:
[1] = target: T1, rat bone PTH/PTHrP receptor (Rattus norvegicus, UniProt P25961, E586G); assay: Inositol phosphate metabolism, COS cells expressing R15B; type: cell-based; settings: FIG. 15
T1 construct: expressed in transfected cells; host or cells: COS / COS-7 cells, transient, plasmid R15B (pcDNA I)
T1 sequence (P25961 27-591 E586G): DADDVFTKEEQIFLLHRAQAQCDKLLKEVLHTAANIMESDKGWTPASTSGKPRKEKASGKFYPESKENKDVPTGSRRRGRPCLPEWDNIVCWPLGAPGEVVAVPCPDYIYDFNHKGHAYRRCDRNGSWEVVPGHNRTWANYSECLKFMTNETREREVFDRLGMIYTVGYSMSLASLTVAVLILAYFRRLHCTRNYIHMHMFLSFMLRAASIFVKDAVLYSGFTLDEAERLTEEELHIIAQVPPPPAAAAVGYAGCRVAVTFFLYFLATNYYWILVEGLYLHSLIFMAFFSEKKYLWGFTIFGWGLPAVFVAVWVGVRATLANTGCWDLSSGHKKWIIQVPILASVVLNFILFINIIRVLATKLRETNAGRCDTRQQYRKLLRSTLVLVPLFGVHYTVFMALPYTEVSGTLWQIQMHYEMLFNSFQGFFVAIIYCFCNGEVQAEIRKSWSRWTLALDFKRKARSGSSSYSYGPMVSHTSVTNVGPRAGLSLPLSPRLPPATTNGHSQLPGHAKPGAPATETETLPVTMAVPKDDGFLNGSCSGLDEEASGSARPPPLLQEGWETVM

[2] = target: T2, opossum kidney PTH/PTHrp receptor clone, OK-O (Didelphis virginiana, UniProt P25107, I132F/S86P); assay: Radioreceptor assay, COS cells expressing OK-O; type: binding; settings: FIG. 11
T2 construct: expressed in transfected cells; host or cells: COS cells, transient, plasmid OK-O (pcDNA I)
Procedure: [Nle^8,Nle^18,Tyr^34]bPTH-(1-34)amide (NlePTH), and [Tyr^36]PTHrP(1-36)amide(PTHrP) were iodinated with Na^125I (carrier free, New England Nuclear, Boston, Mass.) as previously reported (Segre et al., J. Biol. Chem. 254: 6980, 1979), and purified by reverse-phase HPLC. In brief, the labeled peptide was dissolved in 0.1% trifluoracetic acid (TFA), applied to a C18 Sep-pak cartridge (Waters Associates, Inc., Milford, Mass.) and eluted with a solution of 60% acetonitrile in 0.1% TFA. After lyophilization, the radioligand then was applied to C18-μBondapak column (3.9 mm×30 cm. Waters Associates) and eluted over 30 min with a linear gradient of 30-50% acetonitrile-0.1% TFA at a flow rate of 2 ml/min. The radioligand eluted in two peaks; the first peak, which eluted at approximately 38% acetonitrile, was used in these studies because it gave higher total and specific bindings. The specific activity was 500±75 mCi/mg, which corresponds to an average iodine-peptide ratio of 1.
COS-7 cells were grown in 15 cm plates in DMEM, 10% heat-inactivated […], 10 mg/L gentamycin until 80-90% confluent. Twenty-four hours after transfection by the DEAE/Dextran method (Sambrook et al., supra), with 1-2 μg of plasmid DNA, the cells were trypsinized and replated in multiwell plastic dishes (16 or 35 mm diameter, Costar, Cambridge, Mass.) at a cell concentration of 5×10^4 cells/cm^2). Cell number increased only slightly after transfection. After continuing culture for another 48 h, radiorecepter assays were performed. […]
Incubations were terminated by aspirating the buffer, and repeatedly (×3) washing the culture dishes, containing the adherent cells with chilled 0.9% NaCl solution, over a 15 sec period. Cell-bound radioactivity was recovered by the sequential addition (×3) of 1 N NaOH (200 μl) to each well. […] A second and third extraction with 1 N NaOH (200 μl) were combined with the first, and the total radioactivity was counted in a γ-spectrometer (Packard Instruments, Downers Grove, Ill.). […]

T2 sequence (P25107 27-585 S86P/I132F): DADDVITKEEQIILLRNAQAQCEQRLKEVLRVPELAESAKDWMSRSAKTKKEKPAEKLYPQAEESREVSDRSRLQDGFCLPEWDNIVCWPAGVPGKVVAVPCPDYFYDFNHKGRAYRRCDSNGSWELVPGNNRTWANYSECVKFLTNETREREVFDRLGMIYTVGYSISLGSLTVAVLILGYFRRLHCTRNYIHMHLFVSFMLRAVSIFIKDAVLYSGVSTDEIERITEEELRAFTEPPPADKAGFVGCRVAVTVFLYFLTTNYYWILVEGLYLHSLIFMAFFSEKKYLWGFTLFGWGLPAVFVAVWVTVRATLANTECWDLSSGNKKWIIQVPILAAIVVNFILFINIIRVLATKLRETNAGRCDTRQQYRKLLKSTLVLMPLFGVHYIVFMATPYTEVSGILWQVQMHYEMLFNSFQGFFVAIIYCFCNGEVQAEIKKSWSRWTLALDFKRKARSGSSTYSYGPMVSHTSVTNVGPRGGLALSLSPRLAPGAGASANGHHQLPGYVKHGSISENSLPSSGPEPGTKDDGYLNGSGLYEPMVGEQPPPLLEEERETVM

## [Nle^8,18, Tyr^34]bPTH(1-34)amide
[1]
  inositol phosphate metabolism (IP3 and IP2 accumulation): rapid increase
[2]
  inhibition of 125I-PTHrP binding by competitor: inhibited
